# In PMC6801405, “Discovery of 3-Arylquinoxaline Derivatives as Potential Anti-Dengue Virus Agents” (International Journal of Molecular Sciences, 2019):
# “Also recorded” adds a separate entry of the source.
# Columns and labels:
# [1] = test system: DENV2; assay: microbe, parasite or virus in culture; type: cell-based, dengue virus
# Description: Anti-DENV activities were determined by firefly luciferase activity.
# [2] = Cytotoxicity assay (XTT method); type: cell-based, Human; details: human, mean ± SD
# Description: (§1) For cytotoxicity tests, run in parallel with antiviral assays, plates at an initial density of 5 × 10^3 cells/well were treated with or without serial dilutions of test compounds. Cell viability was determined after 72 h at 37 °C in a humidified CO2 (5%) atmosphere by the (2,3-bis[2-methyloxy-4-nitro-5-sulfophenyl]-2H-tetrazolium-5-carboxanilide) (XTT) method.
# [3] = test system: Huh-7 cells; assay: Cytotoxicity assay (XTT method); type: cell-based, Human
# Description: as §1
# [4] = test system: COX-2 expression; assay: COX-2 protein and mRNA expression in Huh-7 cells (Western blotting, RT-qPCR); type: cell-based, Human; details: 0.5 to 5 μM, vs DMSO
# Description: In a previous study, Lin et al. reported that induction of COX-2 could suppress DENV replication. To determine whether compound 19a had impact on COX-2 protein and mRNA expression in Huh-7 cells, we treated Huh-7 cells with 0.5 to 5 μM of 19a. […] To characterize whether the 19a-mediated downregulation of COX-2 expression and its catalytic activity was involved in the suppression of DENV replication, we overexpressed exogenous COX-2 to evaluate the inhibitory activity of 19a on DENV replication. […] Consistently, the exogenous expression of COX-2 attenuated the inhibitory effect of 19a on the non-structural 2B (NS2B) protein levels, as analyzed by Western blotting.
# Huh-7 cells were seeded in 24-well plates at a density of 5 × 10^4 cells per well overnight and treated with indicated reagent at proper concentrations for three days. […] The protein concentration was determined by the Bradford method. […] The blotting signal was developed using an enhanced chemiluminescence (ECL) detection kit (PerkinElmer, Waltham, MA, USA) and was counted by the software Quantity One (Bio-Rad, Hercules, CA, USA). […]
# (§2) Figure 4 Inhibitory effect of 19a on DENV-induced cyclooxygenase-2 (COX-2) expression in Huh-7 cells. […] The results are expressed as the means ± standard deviations (SD) of triplicate experiments.
# [5] = test system: COX-2 promoter; assay: COX-2 promoter-based reporter assay (pCOX-2-Luc) in DENV-infected Huh-7 cells; type: cell-based, Human; details: increasing concentrations, three days
# Description: We also used a COX-2 promoter-based reporter assay to evaluate the inhibitory effect of 19a on COX-2 at the transcriptional level. The pCOX-2-Luc, a plasmid encoding firefly luciferase under the control of the COX-2 promoter, was transfected into Huh-7 cells or DENV-infected Huh-7 cells and, then, these plasmid-transfected cells were incubated with 19a at increasing concentrations for three days.
# Huh-7-DV-Fluc cells were seeded in 24-well plates at a density of 2 × 10^4 cells per well, and treated with the 3-arylquinoxaline compounds at two concentrations (1 and 10 μM) or 0.1% DMSO as control. After three days of incubation, the luciferase activity assay was performed using the Bright-Glo Luciferase assay system (Promega, Madison, WI, USA) according to the manufacturer’s instructions. […] After three days, protein and RNA levels were analyzed by Western blotting with a specific antibody as previously described respectively.
# as §2
smiles,measurement,setting,value
"COc1ccc(-c2nc3ccccc3nc2C(O)c2ccccc2)cc1 (centres unmarked) [Compound 19a, [3-(4-Methoxyphenyl)quinoxalin-2-yl](phenyl)methanol]",DENV2 % Inhibition at 10 μM,"[1]; 10 μM, Huh-7-DV-Fluc cells, three days, mean ± SD",82.71 ± 2.88%
same,"SI (selectivity index, CC50/EC50)",[1]; CC50 Huh-7 / EC50 DENV,>155.04
same,inhibition at 1 µM,"[1]; Dengue virus, DENV2, 72 h, 1 μM, Huh-7-DV-Fluc cells, three days, mean ± SD",36.7 ± 3.71%
same,EC50,"[1]; Dengue virus, DENV2, DENV replication, mean ± SD, read-out: EC50 (concentration resulting in a 50% inhibition in virus production)",1290 ± 740 nM
same,fold more anti-DENV activity than ribavirin,[1]; EC50 compared with ribavirin,approximately 10 fold
same,"viability at 72 h, 20 µM","[2]; Huh-7 cells, 20 μM, 72 h, XTT, read-out: Huh-7 Cell % viability at 20 μM",99.7 ± 1.65%
same,"viability at 72 h, 200 µM","[2]; Huh-7 cells, 200 μM, 72 h, XTT, read-out: Huh-7 Cell % viability at 200 μM",85%
same,CC50 at 72 h,"[2]; uninfected Huh-7 cells, read-out: CC50 (concentration causing a 50% growth inhibition of uninfected Huh-7 cells)",> 200000 nM
same,Huh-7 Cell % viability at 200 μM,"[3]; 200 μM, 72 h, XTT, mean ± SD",85.26 ± 5.63%
same,cytotoxicity in words,[3]; Huh-7 cells,non-cytotoxic; also recorded: no significant cell cytotoxicity
same,COX-2 mRNA level,[4],could inhibit
same,COX-2 protein level,[4],could inhibit
same,DENV-elevated COX-2 promoter activity,[5],dose-dependently decreased
same,melting point,,160.4 to 161.9 °C
